Peptide text beside a SMILES is read from it.
Assay: Inhibition of human SGLT1 expressed in xenopus laevis oocyte assessed as inhibition of methyl-alpha-D-[14C]glucopyranoside uptake after 1 hrs

IC50	SMILES
0.16 nM	NC(=O)CC[C@H](N)C(=O)N[C@@H](CO)C(=O)N1CCC[C@H]1C(=O)O [(S)-1-((S)-2-((S)-2,5-diamino-5-oxopentanamido)-3-hydroxypropanoyl)pyrrolidine-2-carboxylic acid] (H-Gln-Ser-Pro-OH)
2.1 nM	NC(=O)CC[C@H](N)C(=O)N[C@@H](CS)C(=O)N1CCC[C@H]1C(=O)O [QCP] (H-Gln-Cys-Pro-OH)
0.17 nM	CC(=O)N1CCC[C@H]1C(=O)N[C@@H](CO)C(=O)N[C@@H](CCC(N)=O)C(=O)O [QSPac] (Ac-Pro-Ser-Gln-OH)
